Measurements published in patent US20230339968A1, “KRAS Gl2C INHIBITORS” (Eli Lilly and Company, priority 2019, published 2023).
Read-outs that look alike come from different tables or passages of the source.

Key:
Calu-1 (lung) = assay: CellTiterGlo Cell Proliferation Assay (2D), Calu-1; assay type: cell-based; conditions: Homo sapiens, 96 hours
Procedure: (§1) The purpose of this assay is to evaluate the growth of KRas G12C mutant tumor lines following treatment with a test compound. A panel of tumor cell lines harboring KRas G12C or other KRas mutations are collected (Table 25). All cell lines are from ATCC or other sources indicated.
(§2) Typically cells are cultured in RPMI1640 or Dulbecco's modified Eagle's medium (DMEM, GIBCO) supplemented with 10% FBS (GIBCO, Invitrogen). […] The cells are treated with compound for 96 hours, and then are analyzed for viability using the CellTiterGlo® Luminescent Cell Viability Assay® (Promega #G7572 for 2D) according to manufacturer's instructions and an EnVision™ plate reader. Nonlinear regression and sigmoidal dose-response curves are used to calculate the half maximal inhibitory concentration (IC50) with GraphPad Prism 4® software.

pERK = assay: In vivo pharmacodynamic effect, pERK Meso Scale Discovery ELISA of tumor lysates, lung cancer H358 xenograft model; set-up: species or system mouse; conditions: Mus musculus; for inhibition at 12.5 mg/kg / inhibition at 25 mg/kg / inhibition at 50 mg/kg / inhibition at 100 mg/kg: NCI-H358, po, 8 h, read-out: % Inhibition of pERK; for inhibition at 30 mg/kg: read-out: % inhibition of pERK
Procedure: (§3) The purpose of these assays is to evaluate in vivo target inhibition of an orally administered test compound. Human lung cancer H358 cells, or pancreatic cancer MiaPaca-2 cells, are implanted into nude mice xenograft tumor models. H358 or MiaPaca-2 cells (10×106 in a 1:1 Matrigel® mix, 0.2 mL total volume) are implanted by subcutaneous injection in hind leg of nude female mice (Harlan Laboratories). […] Treatment is initiated with oral administration (gavage) of a test compound or vehicle (20% Captisol®, 25 mM phosphate, pH 2.0 in 0.2 mL) when the tumor size reaches approximately 300 mg.
(§4) For in vivo target inhibition and PD analysis, tumors are ground by mortar and pestle on dry ice and tumor fragments are added to 800 μL of lysis buffer containing 1% Triton™ X-100, 25 mM Tris pH7.5, 150 mM sodium chloride, 1 mM EDTA, and 1 mM EGTA with Halt protease and phosphatase inhibitor cocktail (Thermo Scientific, cat. no. 1861281) in lysing matrix D tubes (MP Biomedical®, cat. no. 6913-500) with one additional large bead (MP Biomedical® ¼″ ceramic sphere bead cat. no. 6540-412) per tube. Tumor fragments are homogenized in a Thermo Bio101® fast prep (FP120) at setting 4 for […] while cold for a total of 2 times. Lysates are spun at 14,000 rpm for 10 minutes at 4° C. to clarify. Protein estimation is done on the lysate supernatant using a BioRad Dc® protein assay and lysates are diluted in complete lysis/binding buffer from the Ras GTPase Chemi ELISA Kit® (Active Motif, cat. no. 52097). The active KRas ELISA is performed as follows: glutathione-coated ELISA wells are incubated with diluted RAF1-GST in complete lysis/binding buffer for 1 hour at 4° C. with gentle agitation. Wells are washed 3 times with wash buffer and 100 μg of lysates are added to each well and incubated at ambient temperature for 1 hour with mild agitation. The wells are washed an additional 3 times, then primary antibody, diluted in antibody binding buffer, is added to each well. The plates are incubated for 1 hour. The wells are washed 3 more times before adding HRP-conjugated secondary antibody, diluted in antibody binding buffer, to each well. The plates are incubated at ambient temperature for 1 hour. ELISA wells are washed 4 times, chemiluminescent reagent is added and then luminescence is read. For pERK Meso Scale Discovery ELISA, 25 μg of protein containing 0.1% SDS is used; Meso Scale Discovery Whole Cell Lysate Kit for pERK is provided by Meso Scale Discovery.
(§5) The purpose of this assay is to evaluate the dose dependent in vivo target inhibition and pharmacodynamic effects in a lung cancer model. The test compound is dosed in lung cancer H358 mouse xenograft model at a dose range from 12.5 to 100 mg/kg. The tumor samples are collected 8 hours post a single dose. The tumor lysates are prepared and the inhibition of pERKand active KRas is measured as described above.
(§6) The purpose of this assay is to evaluate the time dependent in vivo target inhibition and pharmacodynamic effects in a lung cancer model. […] After a single dose, the tumor samples are harvested at 2, 4, 8, 12 and 24 hour post doing. The tumor lysates are prepared and the inhibition of pERK and active KRas is measured as described above.

H358 (lung) = assay: CellTiterGlo Cell Proliferation Assay (2D), H358; assay type: cell-based; conditions: Homo sapiens, NCI-H358, 96 hours
Procedure: as §1, §2

active KRas = active KRas (Homo sapiens, UniProt P01116, G12C); assay: In vivo target inhibition, active KRas ELISA of tumor lysates, lung cancer H358 xenograft model; set-up: from tissue; host or cells: H358 xenograft tumours grown subcutaneously in nude female mice; conditions: NCI-H358, mouse; for inhibition at 12.5 mg/kg / inhibition at 25 mg/kg / inhibition at 50 mg/kg / inhibition at 100 mg/kg: po
Procedure: as §3, §4, §5, §6

KYSE-410 (esoph) = assay: CellTiterGlo Cell Proliferation Assay (2D), KYSE-410; assay type: cell-based; conditions: Homo sapiens, 96 hours
Procedure: as §1, §2

UM-UC-3 (bladder) = assay: CellTiterGlo Cell Proliferation Assay (2D), UM-UC-3; assay type: cell-based; conditions: Homo sapiens, UMUC3, 96 hours
Procedure: as §1, §2

SW1463 (colon) = assay: CellTiterGlo Cell Proliferation Assay (2D), SW1463; assay type: cell-based; conditions: Homo sapiens, 96 hours
Procedure: as §1, §2

H23 (lung) = assay: CellTiterGlo Cell Proliferation Assay (2D), H23; assay type: cell-based; conditions: 96 hours
Procedure: as §1, §2

MiaPaca-2 (pancr) = assay: CellTiterGlo Cell Proliferation Assay (2D), MiaPaca-2; assay type: cell-based; conditions: Homo sapiens, MIA PaCa-2, 96 hours
Procedure: as §1, §2

H2030 (lung) = assay: CellTiterGlo Cell Proliferation Assay (2D), H2030; assay type: cell-based; conditions: Homo sapiens, NCI-H2030, 96 hours
Procedure: as §1, §2

SW756 (cervix) = assay: CellTiterGlo Cell Proliferation Assay (2D), SW756; assay type: cell-based; conditions: Homo sapiens, 96 hours
Procedure: as §1, §2

H2122 (lung) = assay: CellTiterGlo Cell Proliferation Assay (2D), H2122; assay type: cell-based; conditions: Homo sapiens, NCI-H2122, 96 hours
Procedure: as §1, §2

A549 (lung) = assay: CellTiterGlo Cell Proliferation Assay (2D), A549 (KRas G12S); assay type: cell-based; conditions: Homo sapiens; for inhibition at 10 µM: read-out: % inh. @ 10 μM
Procedure: as §1, §2

[1] = A549 (lung, KRas G12S), 2D, 96 hours
[2] = A549 (lung, KRas G12S), 2D, 96 hours, 10 μM

Chain of active KRas (P01116 1-188 isoform P01116-2 G12C): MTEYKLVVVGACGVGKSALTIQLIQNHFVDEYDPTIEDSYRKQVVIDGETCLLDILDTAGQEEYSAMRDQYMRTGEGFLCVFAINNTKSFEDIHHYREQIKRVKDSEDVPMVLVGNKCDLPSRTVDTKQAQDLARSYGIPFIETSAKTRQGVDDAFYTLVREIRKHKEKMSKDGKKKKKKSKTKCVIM

IC50 (Calu-1 (lung)) [µM]	IC50 (H358 (lung)) [µM]	IC50 (SW1463 (colon)) [µM]	IC50 (MiaPaca-2 (pancr)) [µM]	IC50 (H2030 (lung)) [µM]	IC50 (SW756 (cervix)) [µM]	IC50 (H2122 (lung)) [µM]	Structure (SMILES)	inhibition at 10 µM (Calu-1 (lung)) [%]	inhibition at 10 µM (H358 (lung)) [%]	IC50 (KYSE-410 (esoph)) [µM]	inhibition at 10 µM (KYSE-410 (esoph)) [%]	IC50 (UM-UC-3 (bladder)) [µM]	inhibition at 10 µM (UM-UC-3 (bladder)) [%]	inhibition at 10 µM (SW1463 (colon)) [%]	IC50 (H23 (lung)) [µM]	inhibition at 10 µM (H23 (lung)) [%]	inhibition at 10 µM (MiaPaca-2 (pancr)) [%]	inhibition at 10 µM (H2030 (lung)) [%]	inhibition at 10 µM (SW756 (cervix)) [%]	inhibition at 10 µM (H2122 (lung)) [%]	other results
1.14	0.002	0.004	0.01	> 10	1.08	0.66	C=CC(=O)N1CCN2C(=O)c3cc(F)c(-c4cccc5sc(N)c(C#N)c45)c(Cl)c3OCC[C@H]2C1 [Example 34, 4-[(13aS)-10-Chloro-8-fluoro-6-oxo-2-prop-2-enoyl-1,3,4,12,13,13a-hexahydropyrazino[2,1-d][1,5]benzoxazocin-9-yl]-2-amino-benzothiophene-3-carbonitrile]	50.6	95.6	> 10	63.2	0.51	56.1	90.1	0.026	96.8	82.9	41.1	56.9	78.1	inhibition at 12.5 mg/kg (pERK; H358 xenograft mice, single oral dose 12.5 mg/kg, 8 hours): 26.9%; inhibition at 25 mg/kg (pERK; H358 xenograft mice, single oral dose 25 mg/kg, 8 hours): 53.2%; inhibition at 50 mg/kg (pERK; H358 xenograft mice, single oral dose 50 mg/kg, 8 hours): 54%; inhibition at 100 mg/kg (pERK; H358 xenograft mice, single oral dose 100 mg/kg, 8 hours): 74.8%; inhibition at 12.5 mg/kg (active KRas; H358 xenograft mice, single oral dose 12.5 mg/kg, 8 hours, read-out: % Inhibition Active RAS): 14.2%; inhibition at 25 mg/kg (active KRas; H358 xenograft mice, single oral dose 25 mg/kg, 8 hours, read-out: % Inhibition Active RAS): 35.1%; inhibition at 50 mg/kg (active KRas; H358 xenograft mice, single oral dose 50 mg/kg, 8 hours, read-out: % Inhibition Active RAS): 31.5%; inhibition at 100 mg/kg (active KRas; H358 xenograft mice, single oral dose 100 mg/kg, 8 hours, read-out: % Inhibition Active RAS): 69.3%; IC50 (A549 (lung); [1]): > 10 µM; inhibition at 10 µM (A549 (lung); [2]): 18.8%
> 10	0.004	0.006	0.018	> 10	1.63	1.17	C=CC(=O)N1CCN2C(=O)c3cc(Cl)c(-c4ccc(F)c5sc(N)nc45)c(Cl)c3OCC[C@H]2C1 (atropisomer, axis not shown) [Example 1, (13aS)-9-(2-Amino-7-fluoro-1,3-benzothiazol-4-yl)-8,10-dichloro-2-prop-2-enoyl-1,3,4,12,13,13a-hexahydropyrazino[2,1-d][1,5]benzoxazocin-6-one]	45.4	94.5	5.84	64.6	0.73	54.3	95.3	0.045	98.2	77.2	32.9	51.9	80.4	IC50 (A549 (lung); [1]): > 10 µM; inhibition at 10 µM (A549 (lung); [2]): 19.1%

Structure (SMILES)	IC50 (Calu-1 (lung)) [µM]	IC50 (H358 (lung)) [µM]	IC50 (SW1463 (colon)) [µM]	IC50 (MiaPaca-2 (pancr)) [µM]	IC50 (H2030 (lung)) [µM]	IC50 (SW756 (cervix)) [µM]	IC50 (H2122 (lung)) [µM]	inhibition at 10 µM (Calu-1 (lung)) [%]	inhibition at 10 µM (H358 (lung)) [%]	IC50 (KYSE-410 (esoph)) [µM]	inhibition at 10 µM (KYSE-410 (esoph)) [%]	IC50 (UM-UC-3 (bladder)) [µM]	inhibition at 10 µM (UM-UC-3 (bladder)) [%]	inhibition at 10 µM (SW1463 (colon)) [%]	IC50 (H23 (lung)) [µM]	inhibition at 10 µM (H23 (lung)) [%]	inhibition at 10 µM (MiaPaca-2 (pancr)) [%]	inhibition at 10 µM (H2030 (lung)) [%]	inhibition at 10 µM (SW756 (cervix)) [%]	inhibition at 10 µM (H2122 (lung)) [%]	other results
C=CC(=O)N1CCN2C(=O)c3cc(F)c(-c4ccc(F)c5sc(N)c(C#N)c45)c(Cl)c3OCC[C@H]2C1 [Example 35, 4-[(13aS)-10-Chloro-8-fluoro-6-oxo-2-prop-2-enoyl-1,3,4,12,13,13a-hexahydropyrazino[2,1-d][1,5]benzoxazocin-9-yl]-2-amino-7-fluoro-benzothiophene-3-carbonitrile]	0.48	0.002	0.005	0.011	> 10	1.55	0.9	56	96.4	7.97	68.3	1.09	80.4	94.3	0.024	98	85.8	40.3	56.7	79.7	inhibition at 30 mg/kg (pERK; NCI-H358, 2 h): 67.9%; inhibition at 30 mg/kg (pERK; NCI-H358, 4 h): 73.2%; inhibition at 30 mg/kg (pERK; NCI-H358, 8 h): 82.6%; inhibition at 30 mg/kg (pERK; NCI-H358, 12 h): 71.1%; inhibition at 30 mg/kg (pERK; NCI-H358, 24 h): 65.2%; inhibition at 12.5 mg/kg (pERK): 82.2%; inhibition at 25 mg/kg (pERK): 85.3%; inhibition at 50 mg/kg (pERK): 90.6%; inhibition at 100 mg/kg (pERK): 88.9%; inhibition at 12.5 mg/kg (active KRas; read-out: % Inhibition Active RAS, H358 xenograft mice, single oral dose 12.5 mg/kg, 8 hours): 81%; inhibition at 25 mg/kg (active KRas; read-out: % Inhibition Active RAS, H358 xenograft mice, single oral dose 25 mg/kg, 8 hours): 73.4%; inhibition at 50 mg/kg (active KRas; read-out: % Inhibition Active RAS, H358 xenograft mice, single oral dose 50 mg/kg, 8 hours): 94%; inhibition at 100 mg/kg (active KRas; read-out: % Inhibition Active RAS, H358 xenograft mice, single oral dose 100 mg/kg, 8 hours): 91.9%; inhibition at 30 mg/kg (active KRas; read-out: % Inhibition of Active Ras, H358 model, single dose 30 mg/kg, 2 h): 7.6%; inhibition at 30 mg/kg (active KRas; read-out: % Inhibition of Active Ras, H358 model, single dose 30 mg/kg, 4 h): 65.7%; inhibition at 30 mg/kg (active KRas; read-out: % Inhibition of Active Ras, H358 model, single dose 30 mg/kg, 8 h): 80.2%; inhibition at 30 mg/kg (active KRas; read-out: % Inhibition of Active Ras, H358 model, single dose 30 mg/kg, 12 h): 39.3%; inhibition at 30 mg/kg (active KRas; read-out: % Inhibition of Active Ras, H358 model, single dose 30 mg/kg, 24 h): 54.9%; inhibition at 10 µM (A549 (lung); A549, 96 h): 31.6%; IC50 (A549 (lung); [1]): > 10 µM
